PubChem BioAssay AID330 (DTP/NCI, 2004)
“And” between values parts separate entries of the source, which are not always exact repeats. Equal values may be shown once. Inconclusive results and toxic doses are left out.

Test system: P388 leukemia ip, CD2F1 mice, survival T/C
Test: NCI In Vivo Anticancer Drug Screen. Data for tumor model P388 Leukemia (intraperitoneal) in CD2F1 (CDF1) mice
Settings: endpoint: median survival time, higher = longer survival
Summary of the method: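 Mice carrying the transplanted tumor received test compound or vehicle. Survival was recorded in each group, and the value is the treated-group measurement divided by that of the vehicle-treated control group.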

[1] = dose: 100.0 mg/kg/injection, schedule: Q01DX001 (ip), vehicle: Klucel (hydroxypropylcellulose) (HPC)
[2] = dose: 400.0 mg/kg/injection, schedule: Q01DX001 (ip), vehicle: Klucel (hydroxypropylcellulose) (HPC)
[3] = dose: 12.5 mg/kg/injection, schedule: Q01DX005 (ip), vehicle: Klucel (hydroxypropylcellulose) (HPC)
[4] = dose: 25.0 mg/kg/injection, schedule: Q01DX005 (ip), vehicle: Klucel (hydroxypropylcellulose) (HPC)

## Cc1cc(=O)[nH]c2c1CCCC2
dose: 100.0 mg/kg/injection, schedule: Q04DX003 (ip), vehicle: saline sonified
  T/C: 107 % of control
dose: 200.0 mg/kg/injection, schedule: Q04DX003 (ip), vehicle: saline sonified
  T/C: 96 % of control
dose: 400.0 mg/kg/injection, schedule: Q04DX003 (ip), vehicle: saline sonified
  T/C: 92 % of control

## Cc1[nH]c2cc3c(cc2c(=O)c1Cc1c(C)[nH]c2cc4c(cc2c1=O)CCCC4)CCCC3
[1]
  T/C: 87 % of control
dose: 200.0 mg/kg/injection, schedule: Q01DX001 (ip), vehicle: Klucel (hydroxypropylcellulose) (HPC)
  T/C: 88 % of control
[2]
  T/C: 87 % of control

## COc1ccc(Cc2cc(N=NC(N)=O)c(C)cc2O)cc1
[3]
  T/C: 106 % of control
[4]
  T/C: 94 % of control
dose: 50.0 mg/kg/injection, schedule: Q01DX005 (ip), vehicle: Klucel (hydroxypropylcellulose) (HPC)
  T/C: 97 % of control

## COc1cc2c(=O)n3c4c(cccc4c2cc1OC)CC3
dose: 25.0 mg/kg/injection, schedule: Q01DX009 (ip), vehicle: other
  T/C: 98 % of control
dose: 50.0 mg/kg/injection, schedule: Q01DX009 (ip), vehicle: other
  T/C: 91 % of control
dose: 100.0 mg/kg/injection, schedule: Q01DX009 (ip), vehicle: other
  T/C: 91 % of control
dose: 200.0 mg/kg/injection, schedule: Q01DX009 (ip), vehicle: other
  T/C: 89 % of control
dose: 400.0 mg/kg/injection, schedule: Q01DX009 (ip), vehicle: other
  T/C: 96 % of control

## O=C(NCCCl)Nc1[nH]c(=O)ncc1Cl
dose: 60.0 mg/kg/injection, schedule: Q01DX005 (ip), vehicle: saline with Tween-80
  T/C: 103 % of control
dose: 120.0 mg/kg/injection, schedule: Q01DX005 (ip), vehicle: saline with Tween-80
  T/C: 100 % of control
dose: 240.0 mg/kg/injection, schedule: Q01DX005 (ip), vehicle: saline with Tween-80
  T/C: 101 % of control

## OCC(O)C(O)C(O)/C=N\O (stereo unspecified)
dose: 50.0 mg/kg/injection, schedule: Q01DX009 (ip), vehicle: saline
  T/C: 98 % of control
dose: 100.0 mg/kg/injection, schedule: Q01DX009 (ip), vehicle: saline
  T/C: 105 % of control
dose: 200.0 mg/kg/injection, schedule: Q01DX009 (ip), vehicle: saline
  T/C: 98 % of control

## Nc1cc(=O)[nH]c(=S)[nH]1.[Pd]
dose: 12.5 mg/kg/injection, schedule: Q01DX009 (ip), vehicle: distilled water + Tween-80
  T/C: 108 % of control
dose: 25.0 mg/kg/injection, schedule: Q01DX009 (ip), vehicle: distilled water + Tween-80
  T/C: 97 % of control
dose: 50.0 mg/kg/injection, schedule: Q01DX009 (ip), vehicle: distilled water + Tween-80
  T/C: 100 % of control
dose: 100.0 mg/kg/injection, schedule: Q01DX009 (ip), vehicle: distilled water + Tween-80
  T/C: 95 % of control
dose: 200.0 mg/kg/injection, schedule: Q01DX009 (ip), vehicle: distilled water + Tween-80
  T/C: 105 % of control

## COCCCOC(=O)NCCCCC([NH-])C(=O)O.COCCCOC(=O)NCCCCC([NH-])C(=O)O.[Cu+2] (stereo unspecified)
dose: 6.25 mg/kg/injection, schedule: Q01DX005 (ip), vehicle: Klucel (hydroxypropylcellulose) (HPC)
  T/C: 100 % of control
[3]
  T/C: 87 % of control
[4]
  T/C: 89 % of control

## N#CC(c1ccc2c(c1)OCO2)N1CCCC1 (stereo unspecified)
dose: 12.5 mg/kg/injection, schedule: Q01DX001 (ip), vehicle: Klucel (hydroxypropylcellulose) (HPC)
  T/C: 108 % of control
dose: 25.0 mg/kg/injection, schedule: Q01DX001 (ip), vehicle: Klucel (hydroxypropylcellulose) (HPC)
  T/C: 108 % of control
[1]
  T/C: 100 % of control
[2]
  T/C: 99 % of control

## CCC(C)N=C1NS(=O)(=O)c2ccccc21 (stereo unspecified)
dose: 50.0 mg/kg/injection, schedule: Q01DX005 (ip), vehicle: saline with Tween-80
  T/C: 105 % of control
dose: 100.0 mg/kg/injection, schedule: Q01DX005 (ip), vehicle: saline with Tween-80
  T/C: 105 % of control
dose: 200.0 mg/kg/injection, schedule: Q01DX005 (ip), vehicle: saline with Tween-80
  T/C: 102 % of control

## O=C(COc1ccc(Cl)cc1Cl)Nc1ccc(I)cc1C(=O)O
dose: 50.0 mg/kg/injection, schedule: Q01DX009 (ip), vehicle: Klucel (hydroxypropylcellulose) (HPC)
  T/C: 94 % of control
dose: 100.0 mg/kg/injection, schedule: Q01DX009 (ip), vehicle: Klucel (hydroxypropylcellulose) (HPC)
  T/C: 92 % of control
dose: 200.0 mg/kg/injection, schedule: Q01DX009 (ip), vehicle: Klucel (hydroxypropylcellulose) (HPC)
  T/C: 91 % of control

## CNc1ccc(Nc2c3ccccc3nc3ccccc23)cc1
dose: 6.25 mg/kg/injection, schedule: Q04DX002 (ip), vehicle: distilled water + Tween-80
  T/C: 109 % of control
dose: 12.5 mg/kg/injection, schedule: Q04DX002 (ip), vehicle: distilled water + Tween-80
  T/C: 120 % of control and 124 % of control
dose: 25.0 mg/kg/injection, schedule: Q04DX002 (ip), vehicle: distilled water + Tween-80
  T/C: 118 % of control
dose: 50.0 mg/kg/injection, schedule: Q04DX002 (ip), vehicle: distilled water + Tween-80
  T/C: 160 % of control
dose: 100.0 mg/kg/injection, schedule: Q04DX002 (ip), vehicle: distilled water + Tween-80
  T/C: 194 % of control and 232 % of control

## CCCCN(CCCC)CC(O)c1cc2c(Cl)cc(Cl)cc2c2cc(C(F)(F)F)ccc12 (stereo unspecified)
dose: 50.0 mg/kg/injection, schedule: Q01DX009 (ip), vehicle: saline with Tween-80
  T/C: 97 % of control
dose: 100.0 mg/kg/injection, schedule: Q01DX009 (ip), vehicle: saline with Tween-80
  T/C: 100 % of control
dose: 200.0 mg/kg/injection, schedule: Q01DX009 (ip), vehicle: saline with Tween-80
  T/C: 100 % of control
